Legend:
[1] = test system: lipoxygenase pathway (5-HETE production in rat neutrophils); assay: Protocol for Detecting Inhibitors of the Lipoxygenase Pathway (5-HETE production in rat neutrophils); assay type: cell-based; settings: Neutrophil, 0.05 h, [14C]-arachidonic acid and Calcium Ionophore A23187, 3 minutes at 30° C., 5-HETE produced, read-out: I50
Protocol: The following protocol describes an assay to detect inhibitors of the lipoxygenase pathway. Such inhibitors are believed to be capable of modulating the biosynthesis of the leukotrienes, a property believed to be useful in treating asthma and inflammatory disease states.
Protocol for Detecting Inhibitors of the Lipoxygenase Pathway
A suspension of rat neutrophils in buffer is incubated for 3 minutes at 30° C. with [^14 C]-arachidonic acid (AA) and Calcium Ionophore A23187. Citric acid (2M) is used to quench the reaction. Following the addition of a trace amount of (^3 H)-5-HETE together with an excess of unlabeled 5-HETE to each tube, the mixture is extracted with chloroform/methanol. The organic layer is washed with dilute acid and an aliquot is transferred to glass tubes and dried. […] After adjusting for the extraction efficiency, the amount (pmole) of [^14 C]-5-HETE in each of the tubes is quantitated by substracting the net pmoles of 5-HETE in the tubes containing buffer alone (blank) from the pmoles of 5-HETE in the tubes containing […]. The ability of the test compounds to modulate the activity of this enzyme is determined by a decrease or increase in the net amount of 5-HETE produced.

[2] = test system: leukotriene C4-induced contraction of guinea pig peripheral lung strips; assay: Protocol for SRS-A Antagonists: leukotriene C4-induced contraction of guinea pig peripheral lung strips; settings: 0.2 nM leukotriene C4, read-out: concentration required for 50% inhibition of 0.2 nM leukotriene C4-induced contraction
Protocol: Leukotrienes, the products of the 5-lipoxygenase pathway of arachidonic acid metabolism, are potent contractile agents with a variety of smooth muscle preparations. […] The following protocol describes an in vitro assay used to test compounds which specifically antagonize the actions of leukotrienes.
Protocol for SRS-A (slow reacting substance of anaphylaxis) Antagonists
Peripheral strips of guinea pig lungs are prepared and hung in tissue baths (Metro #ME-5505, 10 ml) according to the published procedure--(Proc. Nat'l Acad. Sci., U.S.A. Volume 77, pp. 4354-4358, 1980). The strips are thoroughly rinsed in Assay Buffer and then connected with surgical silk thread to support rods from the tissue baths. The rods are adjusted in the baths and the strips connected to the pressure transducers (Grass FT 103 or Gould UC-3). The tissue baths are aerated with 95% oxygen--5% carbon dioxide and maintained at 37° C. The assay buffer has been made as follows: for each liter of buffer the following are added to approximately 800 ml of water distilled in glass-6.87 g NaCl, 0.4 g KCl, 2.1 g NaHCO3, 0.14 g NaH2 PO4.H2 O, 0.21 g MgSO4.7H2 O, and 2.0 g D-glucose. […]
Responses of each tissue to a pre-determined concentration of leukotriene are then obtained. […] The intrinsic activity of the compounds, and their effect on leukotriene-induced contractions are then recorded.

[3] = test system: SRS-A component of anaphylactic bronchoconstriction; assay: Bronchial Anaphylaxis in Guinea Pigs with Enhanced Leukotrienes (BAGEL); assay type: in vivo, guinea pig; settings: 100 mg/kg, i.d., guinea pigs immunized with ovalbumin
Protocol: Protocol for in vivo Testing of Modulators of SRS-A (slow reacting substances of anaphylaxis)
This test, known as the Bronchial Anaphylaxis in Guinea Pigs with Enhanced Leukotrienes (BAGEL), is based on the procedure published in Agents and Actions, Vol. II, pp. 396-401, 1981, and is performed with guinea pigs actively immunized (14 days) with ovalbumin (2.7 mg/kg, i.p.) and B. pertussis (5×10^9 organisms) as an adjuvant. Prior to challenge with antigen (ovalbumin), the animals are anesthetized and prepared for monitoring pulmonary dynamics by whole body plethysmography. They are treated with an H1 antihistamine (methapyrilene, 2 mg/kg, i.v.) and cyclooxygenase inhibitor (indomethacin; 20 mg/kg, i.p.) in order to enhance the SRS-A component of anaphylactic bronchoconstriction. Bronchoconstriction is quantified as the maximum increase in airway resistance following antigen challenge. The drug is administered either i.p. 10 minutes before challenge, or i.d. 15 minutes before challenge.

Row | IC50 [1] [µM] | IC50 [2] [µM] | SMILES | activity in BAGEL test (bronchoconstriction following antigen challenge) [3]
1 | 0.7 | 0.3 | COc1ccc(OCc2ccc3ccccc3n2)cc1 [2-(p-methoxyphenoxymethyl) quinoline, 2-(p-Methoxyphenoxymethyl) quinoline] | 
2 | 0.5 | 0.9 | c1ccc(OCc2ccc3ccccc3n2)cc1 [2-Phenoxymethyl quinoline] | highly active

Reference: US4631287A, “Aryl and heteroaryl ethers as agents for the treatment of hypersensitive ailments” (USV Pharmaceutical Corp., priority 1985, dated 1986)
